Test results published in the supplement of paper PMC10307832.

Assays:
Assay in all cases: relative viability (nuclei count vs DMSO), 5 days (fraction); higher = more cells survive
GSK-J4 = compound: CCOC(=O)CCNc1cc(N2CCc3ccccc3CC2)nc(-c2ccccn2)n1 [GSK-J4]
Procedure, shortened: (§1)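 Viability was read as treated-well nuclei divided by vehicle-well nuclei, using the median across plates. Lung cancer cell lines in 1536-well plates were kept overnight at 37 °C, pinned with five √10-spaced library-drug doses, and after 5 days were Hoechst-stained, imaged at 4× and counted in MetaXpress. Plates passed only with control CV below 25% and at least one doubling.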

AZ3146 = compound: CN1CCC(CC1)OC2=CC(=C(C=C2)NC3=NC=C4C(=N3)N(C(=O)N4C)C5CCCC5)OC [AZ3146]
Procedure, shortened: as §1

GSK-J4 + Alpelisib = compound: CCOC(=O)CCNc1cc(N2CCc3ccccc3CC2)nc(-c2ccccn2)n1 [GSK-J4] + Cc1nc(NC(=O)N2CCC[C@H]2C(N)=O)sc1-c1ccnc(C(C)(C)C(F)(F)F)c1 [Alpelisib] (partner 2 µM)
Procedure, shortened: (§2)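 Relative viability was taken as the ratio of nuclei in treated wells to nuclei in vehicle wells. Lung cancer cell lines in 1536-well plates received compounds by pin tool one day after seeding, either one drug alone or a fixed anchor-drug dose plus five library-drug doses (not always all listed) in √10 steps. Nuclei were counted on 4× images after 5 days of treatment, and values are medians of duplicate plates.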

AZ3146 + Pemetrexed = compound: CN1CCC(CC1)OC2=CC(=C(C=C2)NC3=NC=C4C(=N3)N(C(=O)N4C)C5CCCC5)OC [AZ3146] + Nc1nc2[nH]cc(CCc3ccc(C(=O)N[C@@H](CCC(=O)O)C(=O)O)cc3)c2c(=O)[nH]1 [Pemetrexed] (partner 0.2 µM)
Procedure, shortened: as §2

Cell Line: HCC-44
- relative viability (GSK-J4; 0.5 µM): 1.01
- relative viability (GSK-J4; 1.581 µM): 0.864
- relative viability (GSK-J4; 5 µM): 0.861
- relative viability (GSK-J4; 15.81 µM): 1.02
- relative viability (GSK-J4; 50 µM): 1.01
- relative viability (AZ3146; 0.08 µM): 0.969
- relative viability (AZ3146; 0.253 µM): 0.917
- relative viability (AZ3146; 0.8 µM): 1.09
- relative viability (AZ3146; 2.53 µM): 1.02
- relative viability (AZ3146; 8 µM): 0.89
- relative viability (GSK-J4 + Alpelisib; first compound 0.5 µM): 0.791
- relative viability (GSK-J4 + Alpelisib; first compound 1.581 µM): 0.781
- relative viability (GSK-J4 + Alpelisib; first compound 5 µM): 0.709
- relative viability (GSK-J4 + Alpelisib; first compound 15.81 µM): 0.776
- relative viability (GSK-J4 + Alpelisib; first compound 50 µM): 0.711
- relative viability (AZ3146 + Pemetrexed; first compound 0.08 µM): 0.601
- relative viability (AZ3146 + Pemetrexed; first compound 0.253 µM): 0.654
- relative viability (AZ3146 + Pemetrexed; first compound 0.8 µM): 0.687
- relative viability (AZ3146 + Pemetrexed; first compound 2.53 µM): 0.698
- relative viability (AZ3146 + Pemetrexed; first compound 8 µM): 0.654

Cell Line: HCC-78
- relative viability (GSK-J4; 0.5 µM): 1.06
- relative viability (GSK-J4; 1.581 µM): 0.946
- relative viability (GSK-J4; 5 µM): 1.14
- relative viability (GSK-J4; 15.81 µM): 0.728
- relative viability (GSK-J4; 50 µM): 0.92
- relative viability (AZ3146; 0.253 µM): 1.01
- relative viability (AZ3146; 0.8 µM): 0.864
- relative viability (AZ3146; 2.53 µM): 0.989
- relative viability (AZ3146; 8 µM): 0.956
- relative viability (GSK-J4 + Alpelisib; first compound 0.5 µM): 0.403
- relative viability (GSK-J4 + Alpelisib; first compound 1.581 µM): 0.31
- relative viability (GSK-J4 + Alpelisib; first compound 5 µM): 0.501
- relative viability (GSK-J4 + Alpelisib; first compound 50 µM): 0.316
- relative viability (AZ3146 + Pemetrexed; first compound 0.253 µM): 1
- relative viability (AZ3146 + Pemetrexed; first compound 0.8 µM): 0.911
- relative viability (AZ3146 + Pemetrexed; first compound 2.53 µM): 0.91
- relative viability (AZ3146 + Pemetrexed; first compound 8 µM): 0.895

Cell Line: HCC-366
- relative viability (GSK-J4; 0.5 µM): 1.03
- relative viability (GSK-J4; 1.581 µM): 0.851
- relative viability (GSK-J4; 15.81 µM): 0.988
- relative viability (GSK-J4; 50 µM): 0.989
- relative viability (AZ3146; 0.08 µM): 0.9
- relative viability (AZ3146; 0.253 µM): 0.939
- relative viability (AZ3146; 0.8 µM): 1.02
- relative viability (AZ3146; 2.53 µM): 0.973
- relative viability (AZ3146; 8 µM): 0.988
- relative viability (GSK-J4 + Alpelisib; first compound 0.5 µM): 0.391
- relative viability (GSK-J4 + Alpelisib; first compound 1.581 µM): 0.25
- relative viability (GSK-J4 + Alpelisib; first compound 15.81 µM): 0.305
- relative viability (GSK-J4 + Alpelisib; first compound 50 µM): 0.365
- relative viability (AZ3146 + Pemetrexed; first compound 0.08 µM): 0.166
- relative viability (AZ3146 + Pemetrexed; first compound 0.253 µM): 0.205
- relative viability (AZ3146 + Pemetrexed; first compound 0.8 µM): 0.198
- relative viability (AZ3146 + Pemetrexed; first compound 2.53 µM): 0.157
- relative viability (AZ3146 + Pemetrexed; first compound 8 µM): 0.148

Cell Line: HCC-827
- relative viability (GSK-J4; 0.5 µM): 1.01
- relative viability (GSK-J4; 1.581 µM): 0.902
- relative viability (GSK-J4; 5 µM): 0.839
- relative viability (GSK-J4; 15.81 µM): 1
- relative viability (GSK-J4; 50 µM): 1.02
- relative viability (AZ3146; 0.08 µM): 1.04
- relative viability (AZ3146; 0.253 µM): 0.998
- relative viability (AZ3146; 0.8 µM): 0.987
- relative viability (AZ3146; 2.53 µM): 0.939
- relative viability (AZ3146; 8 µM): 1.04
- relative viability (GSK-J4 + Alpelisib; first compound 0.5 µM): 0.981
- relative viability (GSK-J4 + Alpelisib; first compound 1.581 µM): 1
- relative viability (GSK-J4 + Alpelisib; first compound 5 µM): 1.02
- relative viability (GSK-J4 + Alpelisib; first compound 15.81 µM): 0.915
- relative viability (GSK-J4 + Alpelisib; first compound 50 µM): 0.939
- relative viability (AZ3146 + Pemetrexed; first compound 0.08 µM): 0.291
- relative viability (AZ3146 + Pemetrexed; first compound 0.253 µM): 0.244
- relative viability (AZ3146 + Pemetrexed; first compound 0.8 µM): 0.252
- relative viability (AZ3146 + Pemetrexed; first compound 2.53 µM): 0.269
- relative viability (AZ3146 + Pemetrexed; first compound 8 µM): 0.248

Cell Line: HOP-62
- relative viability (GSK-J4; 0.5 µM): 1
- relative viability (GSK-J4; 1.581 µM): 0.835
- relative viability (GSK-J4; 5 µM): 1.04
- relative viability (GSK-J4; 15.81 µM): 0.987
- relative viability (GSK-J4; 50 µM): 0.749
- relative viability (AZ3146; 0.08 µM): 0.958
- relative viability (AZ3146; 0.253 µM): 0.986
- relative viability (AZ3146; 0.8 µM): 0.98
- relative viability (AZ3146; 2.53 µM): 1.03
- relative viability (AZ3146; 8 µM): 0.956
- relative viability (GSK-J4 + Alpelisib; first compound 0.5 µM): 0.956
- relative viability (GSK-J4 + Alpelisib; first compound 1.581 µM): 1.01
- relative viability (GSK-J4 + Alpelisib; first compound 5 µM): 1.12
- relative viability (GSK-J4 + Alpelisib; first compound 15.81 µM): 0.912
- relative viability (GSK-J4 + Alpelisib; first compound 50 µM): 0.859
- relative viability (AZ3146 + Pemetrexed; first compound 0.08 µM): 0.242
- relative viability (AZ3146 + Pemetrexed; first compound 0.253 µM): 0.328
- relative viability (AZ3146 + Pemetrexed; first compound 0.8 µM): 0.339
- relative viability (AZ3146 + Pemetrexed; first compound 2.53 µM): 0.305
- relative viability (AZ3146 + Pemetrexed; first compound 8 µM): 0.365

Cell Line: LC-2-ad
- relative viability (GSK-J4; 0.5 µM): 0.988
- relative viability (GSK-J4; 1.581 µM): 0.807
- relative viability (GSK-J4; 5 µM): 0.787
- relative viability (GSK-J4; 15.81 µM): 0.933
- relative viability (GSK-J4; 50 µM): 0.903
- relative viability (AZ3146; 0.08 µM): 0.895
- relative viability (AZ3146; 0.253 µM): 1.04
- relative viability (AZ3146; 0.8 µM): 0.979
- relative viability (AZ3146; 2.53 µM): 0.967
- relative viability (AZ3146; 8 µM): 0.91
- relative viability (GSK-J4 + Alpelisib; first compound 0.5 µM): 0.725
- relative viability (GSK-J4 + Alpelisib; first compound 1.581 µM): 0.764
- relative viability (GSK-J4 + Alpelisib; first compound 5 µM): 0.857
- relative viability (GSK-J4 + Alpelisib; first compound 15.81 µM): 0.877
- relative viability (GSK-J4 + Alpelisib; first compound 50 µM): 0.87
- relative viability (AZ3146 + Pemetrexed; first compound 0.08 µM): 0.245
- relative viability (AZ3146 + Pemetrexed; first compound 0.253 µM): 0.29
- relative viability (AZ3146 + Pemetrexed; first compound 0.8 µM): 0.271
- relative viability (AZ3146 + Pemetrexed; first compound 2.53 µM): 0.262
- relative viability (AZ3146 + Pemetrexed; first compound 8 µM): 0.259

Cell Line: LCLC-97TM1
- relative viability (GSK-J4; 0.5 µM): 0.865
- relative viability (GSK-J4; 1.581 µM): 0.753
- relative viability (GSK-J4; 5 µM): 1.05
- relative viability (GSK-J4; 15.81 µM): 0.608
- relative viability (GSK-J4; 50 µM): 0.755
- relative viability (AZ3146; 0.08 µM): 0.836
- relative viability (AZ3146; 0.253 µM): 1.01
- relative viability (AZ3146; 0.8 µM): 0.932
- relative viability (AZ3146; 2.53 µM): 1.1
- relative viability (AZ3146; 8 µM): 0.751
- relative viability (GSK-J4 + Alpelisib; first compound 5 µM): 0.271
- relative viability (GSK-J4 + Alpelisib; first compound 15.81 µM): 0.24
- relative viability (GSK-J4 + Alpelisib; first compound 50 µM): 0.164
- relative viability (AZ3146 + Pemetrexed; first compound 0.08 µM): 0.142
- relative viability (AZ3146 + Pemetrexed; first compound 0.253 µM): 0.184
- relative viability (AZ3146 + Pemetrexed; first compound 0.8 µM): 0.233
- relative viability (AZ3146 + Pemetrexed; first compound 2.53 µM): 0.192
- relative viability (AZ3146 + Pemetrexed; first compound 8 µM): 0.163

Cell Line: LCLC-103H
- relative viability (GSK-J4; 0.5 µM): 1.07
- relative viability (GSK-J4; 1.581 µM): 0.883
- relative viability (GSK-J4; 5 µM): 0.908
- relative viability (GSK-J4; 15.81 µM): 0.954
- relative viability (GSK-J4; 50 µM): 0.94
- relative viability (AZ3146; 0.08 µM): 0.974
- relative viability (AZ3146; 0.253 µM): 0.949
- relative viability (AZ3146; 0.8 µM): 0.974
- relative viability (AZ3146; 2.53 µM): 0.995
- relative viability (AZ3146; 8 µM): 0.965
- relative viability (GSK-J4 + Alpelisib; first compound 0.5 µM): 0.934
- relative viability (GSK-J4 + Alpelisib; first compound 1.581 µM): 0.859
- relative viability (GSK-J4 + Alpelisib; first compound 5 µM): 1.09
- relative viability (GSK-J4 + Alpelisib; first compound 15.81 µM): 0.986
- relative viability (GSK-J4 + Alpelisib; first compound 50 µM): 1.11
- relative viability (AZ3146 + Pemetrexed; first compound 0.08 µM): 0.429
- relative viability (AZ3146 + Pemetrexed; first compound 0.253 µM): 0.439
- relative viability (AZ3146 + Pemetrexed; first compound 0.8 µM): 0.444
- relative viability (AZ3146 + Pemetrexed; first compound 2.53 µM): 0.49
- relative viability (AZ3146 + Pemetrexed; first compound 8 µM): 0.499
